The values below are quoted from earlier work in US20210299077A1, “LIPOSOMAL REDUCED GLUTATHIONE (LRG) IN COMBINATION WITH IVERMECTIN FOR THE TREATMENT OF COVID-19” (Your Energy Systems, LLC, priority 2020, published 2021).

Read-outs that look alike come from different tables or passages of the source.

For data set [1], the system named is influenza viruses. Conditions: 300 mg twice a day for 5 days.
For data set [2] the following is noted: patients receiving remdesivir.
The subject of data set [3] is COVID-19. The following applies: COVID-19 patients.
In data set [4] the test system is SARS-CoV. Conditions: mouse SARS-CoV model.
The subject of data set [5] is SARS-CoV-2.
Data set [6] relates to SARS-CoV. The following applies: in vitro studies.
For data set [7] the following is noted: single oral dose of 2000 mg.

For the molecule `CC(=O)Oc1ccccc1C(=O)Nc1ncc([N+](=O)[O-])s1` [NTZ, Nitazoxanide], in data set [1], the “symptoms and infectious viral load” value is “reduction of symptoms and infectious viral load”; the tolerability entry is recorded as “well tolerated”.
In the case of `CCC(CC)COC(=O)[C@H](C)N[P@](=O)(OC[C@H]1O[C@@](C#N)(c2ccc3c(N)ncnn23)[C@H](O)[C@@H]1O)Oc1ccccc1` [Remdesivir], in data set [2], the adverse events entry was “nausea, vomiting, rectal bleeding, and elevated liver enzymes”.
Regarding `CCN(CC)CCCC(C)Nc1ccnc2cc(Cl)ccc12` (stereo not shown) [chloroquine], in data set [3], the “clinical and virologic outcome versus a comparison group” value was “clinical and virologic benefit”. The “efficacy in inhibiting viral replication” value in data set [4] was “did not show efficacy”.
For `CCN(CCO)CCCC(C)Nc1ccnc2cc(Cl)ccc12` (stereo not shown) [hydroxychloroquine], the “in-vitro activity against SARS-CoV-2” value in data set [5] is “relatively higher potency against SARS-CoV-2”.
Take `O=C(Nc1ccc([N+](=O)[O-])cc1Cl)c1cc(Cl)ccc1O` [niclosamide]: the aqueous solubility result is “limited aqueous solubility”. Besides, the “inhibition of SARS-CoV replication” value in data set [6] is reported as “able to inhibit SARS-CoV replication at a micromolar concentration”. Besides, in data set [7], the maximum serum concentration was 0.25 to 6.0 µg/mL. The maximum serum concentration in data set [7] (same range in μM) was 0.76 to 18.3 µM.
